Assay results as given in PubChem BioAssay AID2060882 (Molecular Pharmacology Branch, DTP, NCI, 2025).

Test system: 898857-211-R-J1-PDC complex spheroids, growth % test/control
Test: Anticancer human tumor 898857-211-R-J1-PDC patient-derived melanoma cell line growth inhibition [RAS]
Conditions: for IC50: curve of first compound; for viability, T/C: stronger effect = lower value
Summary of the method: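 Tumour cells grown as complex spheroids with HUVEC endothelial cells and mesenchymal stem cells, treated with RAS pathway inhibitor combinations. Each agent spans half-log steps from near clinical Cmax, or 10 microM where Cmax is unknown.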

[1] = second compound 0.00316 µM, first compound 0.000949 µM
[2] = second compound 0.00316 µM, first compound 0.003 µM
[3] = second compound 0.00316 µM, first compound 0.00949 µM
[4] = second compound 0.00316 µM, first compound 0.03 µM
[5] = second compound 0.00316 µM, first compound 0.0949 µM
[6] = second compound 0.00316 µM, first compound 0.3 µM
[7] = second compound 0.01 µM, first compound 0.000949 µM
[8] = second compound 0.01 µM, first compound 0.003 µM
[9] = second compound 0.01 µM, first compound 0.00949 µM
[10] = second compound 0.01 µM, first compound 0.03 µM
[11] = second compound 0.01 µM, first compound 0.0949 µM
[12] = second compound 0.01 µM, first compound 0.3 µM
[13] = second compound 0.0316 µM, first compound 0.000949 µM
[14] = second compound 0.0316 µM, first compound 0.003 µM
[15] = second compound 0.0316 µM, first compound 0.00949 µM
[16] = second compound 0.0316 µM, first compound 0.03 µM
[17] = second compound 0.0316 µM, first compound 0.0949 µM
[18] = second compound 0.0316 µM, first compound 0.3 µM
[19] = second compound 0.1 µM, first compound 0.000949 µM
[20] = second compound 0.1 µM, first compound 0.003 µM
[21] = second compound 0.1 µM, first compound 0.00949 µM
[22] = second compound 0.1 µM, first compound 0.03 µM
[23] = second compound 0.1 µM, first compound 0.0949 µM
[24] = second compound 0.1 µM, first compound 0.3 µM
[25] = second compound 0.316 µM, first compound 0.000949 µM
[26] = second compound 0.316 µM, first compound 0.003 µM
[27] = second compound 0.316 µM, first compound 0.00949 µM
[28] = second compound 0.316 µM, first compound 0.03 µM
[29] = second compound 0.316 µM, first compound 0.0949 µM
[30] = second compound 0.316 µM, first compound 0.3 µM
[31] = second compound 1 µM, first compound 0.000949 µM
[32] = second compound 1 µM, first compound 0.003 µM
[33] = second compound 1 µM, first compound 0.00949 µM
[34] = second compound 1 µM, first compound 0.03 µM
[35] = second compound 1 µM, first compound 0.0949 µM
[36] = second compound 1 µM, first compound 0.3 µM
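Also: spheroids exposed to compound for seven days before readout.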
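For viability, T/C in this document: 100% = DMSO vehicle control wells.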

CC1(C)CCC(Nc2ncc(C(F)(F)F)c(-c3c[nH]c4c(P(C)(C)=O)c(C#N)ccc34)n2)CN1 (stereo unspecified) + C=CC(=O)N1CCN(c2nc(OCC3CCCN3C)nc3c(F)c(-c4nc(N)cc(C)c4C(F)(F)F)c(Cl)cc23)C(C)C1
IC50 (second compound 0.00316 µM): 5.36 nM | IC50 (second compound 0.01 µM): 5.18 nM | IC50 (second compound 0.0316 µM): 4.69 nM | IC50 (second compound 0.1 µM): 5.81 nM | IC50 (second compound 0.316 µM): 5.77 nM | IC50 (second compound 1 µM): 4.52 nM | viability, T/C [1]: 96.9% | viability, T/C [2]: 67.8% | viability, T/C [3]: 32.1% | viability, T/C [4]: 20.6% | viability, T/C [5]: 16.4% | viability, T/C [6]: 14.5% | viability, T/C [7]: 96.9% | viability, T/C [8]: 66.3% | viability, T/C [9]: 32.1% | viability, T/C [10]: 19.5% | viability, T/C [11]: 18.5% | viability, T/C [12]: 17.8% | viability, T/C [13]: 91.3% | viability, T/C [14]: 61.3% | viability, T/C [15]: 32% | viability, T/C [16]: 22% | viability, T/C [17]: 17.4% | viability, T/C [18]: 17.1% | viability, T/C [19]: 91.8% | viability, T/C [20]: 74.7% | viability, T/C [21]: 32% | viability, T/C [22]: 14.9% | viability, T/C [23]: 17.6% | viability, T/C [24]: 15.8% | viability, T/C [25]: 101% | viability, T/C [26]: 70.5% | viability, T/C [27]: 33.8% | viability, T/C [28]: 21.8% | viability, T/C [29]: 17.8% | viability, T/C [30]: 15% | viability, T/C [31]: 98.9% | viability, T/C [32]: 61.3% | viability, T/C [33]: 29.3% | viability, T/C [34]: 18.3% | viability, T/C [35]: 15% | viability, T/C [36]: 12.2%

CCc1c2c(nc3ccc(O)cc13)-c1cc3c(c(=O)n1C2)COC(=O)[C@]3(O)CC + C=CC(=O)N1CCN(c2nc(OCC3CCCN3C)nc3c(F)c(-c4nc(N)cc(C)c4C(F)(F)F)c(Cl)cc23)C(C)C1
IC50 (second compound 0.00316 µM): 4.67 nM | IC50 (second compound 0.01 µM): 4.95 nM | IC50 (second compound 0.0316 µM): 5.08 nM | IC50 (second compound 0.1 µM): 4.95 nM | IC50 (second compound 0.316 µM): 5.43 nM | IC50 (second compound 1 µM): 5.56 nM | viability, T/C [1]: 95.2% | viability, T/C [2]: 64.1% | viability, T/C [3]: 27.9% | viability, T/C [4]: 8.98% | viability, T/C [5]: 7.24% | viability, T/C [6]: 8.79% | viability, T/C [7]: 89.6% | viability, T/C [8]: 67.4% | viability, T/C [9]: 27.5% | viability, T/C [10]: 10.1% | viability, T/C [11]: 7.97% | viability, T/C [12]: 8.39% | viability, T/C [13]: 87.3% | viability, T/C [14]: 69.2% | viability, T/C [15]: 27.4% | viability, T/C [16]: 8.88% | viability, T/C [17]: 8.21% | viability, T/C [18]: 8.99% | viability, T/C [19]: 93% | viability, T/C [20]: 68.7% | viability, T/C [21]: 26% | viability, T/C [22]: 8.12% | viability, T/C [23]: 7.6% | viability, T/C [24]: 8.98% | viability, T/C [25]: 98.4% | viability, T/C [26]: 73.3% | viability, T/C [27]: 28.4% | viability, T/C [28]: 9.68% | viability, T/C [29]: 9.81% | viability, T/C [30]: 8.65% | viability, T/C [31]: 98% | viability, T/C [32]: 75.5% | viability, T/C [33]: 27.8% | viability, T/C [34]: 11.4% | viability, T/C [35]: 8.78% | viability, T/C [36]: 8.26%

C=CC(=O)Nc1cc(Nc2nccc(-c3cn(C)c4ccccc34)n2)c(OC)cc1N(C)CCN(C)C + CCn1c(-c2cc(N3CCN(C)CC3)cnc2C(C)OC)c2c3cc(ccc31)-c1csc(n1)CC(NC(=O)C1CC1C)C(=O)N1CCCC(N1)C(=O)OCC(C)(C)C2
IC50 (second compound 0.000949 µM): 832 nM | IC50 (second compound 0.003 µM): 380 nM | IC50 (second compound 0.00949 µM): 538 nM | IC50 (second compound 0.03 µM): 561 nM | IC50 (second compound 0.0949 µM): 591 nM | IC50 (second compound 0.3 µM): 603 nM | viability, T/C (second compound 0.000949 µM, first compound 0.00316 µM): 101% | viability, T/C (second compound 0.000949 µM, first compound 0.01 µM): 101% | viability, T/C (second compound 0.000949 µM, first compound 0.0316 µM): 106% | viability, T/C (second compound 0.000949 µM, first compound 0.1 µM): 102% | viability, T/C (second compound 0.000949 µM, first compound 0.316 µM): 73.7% | viability, T/C (second compound 0.000949 µM, first compound 1 µM): 45.5% | viability, T/C (second compound 0.003 µM, first compound 0.00316 µM): 99% | viability, T/C (second compound 0.003 µM, first compound 0.01 µM): 113% | viability, T/C (second compound 0.003 µM, first compound 0.0316 µM): 97% | viability, T/C (second compound 0.003 µM, first compound 0.1 µM): 88.9% | viability, T/C (second compound 0.003 µM, first compound 0.316 µM): 52.4% | viability, T/C (second compound 0.003 µM, first compound 1 µM): 34.9% | viability, T/C (second compound 0.00949 µM, first compound 0.00316 µM): 105% | viability, T/C (second compound 0.00949 µM, first compound 0.01 µM): 112% | viability, T/C (second compound 0.00949 µM, first compound 0.0316 µM): 114% | viability, T/C (second compound 0.00949 µM, first compound 0.1 µM): 88.9% | viability, T/C (second compound 0.00949 µM, first compound 0.316 µM): 65.5% | viability, T/C (second compound 0.00949 µM, first compound 1 µM): 33.7% | viability, T/C (second compound 0.03 µM, first compound 0.00316 µM): 102% | viability, T/C (second compound 0.03 µM, first compound 0.01 µM): 96.2% | viability, T/C (second compound 0.03 µM, first compound 0.0316 µM): 110% | viability, T/C (second compound 0.03 µM, first compound 0.1 µM): 91.3% | viability, T/C (second compound 0.03 µM, first compound 0.316 µM): 64.7% | viability, T/C (second compound 0.03 µM, first compound 1 µM): 35.6% | viability, T/C (second compound 0.0949 µM, first compound 0.00316 µM): 106% | viability, T/C (second compound 0.0949 µM, first compound 0.01 µM): 104% | viability, T/C (second compound 0.0949 µM, first compound 0.0316 µM): 101% | viability, T/C (second compound 0.0949 µM, first compound 0.1 µM): 96% | viability, T/C (second compound 0.0949 µM, first compound 0.316 µM): 60.5% | viability, T/C (second compound 0.0949 µM, first compound 1 µM): 41.1% | viability, T/C (second compound 0.3 µM, first compound 0.00316 µM): 125% | viability, T/C (second compound 0.3 µM, first compound 0.01 µM): 114% | viability, T/C (second compound 0.3 µM, first compound 0.0316 µM): 102% | viability, T/C (second compound 0.3 µM, first compound 0.1 µM): 97% | viability, T/C (second compound 0.3 µM, first compound 0.316 µM): 64.7% | viability, T/C (second compound 0.3 µM, first compound 1 µM): 36.2%
